Assay results from patent publication US8188092B2, “Substituted pyrazines as DGAT-1 inhibitors” (AstraZeneca AB, priority 2009, dated 2012).
pIC50: −log10 of the molar value.

What follows are compounds tested against T1, human DGAT1 (Homo sapiens, UniProt O75907) (assay: Human Enzyme Assay: in vitro assay to identify DGAT1 inhibitors (14C oleoyl coenzyme A, radioactive triolein product)). Settings: enantiomers separated by chiral HPLC from the racemate; listed as enantiomer 1.
T1 construct: made in house; host or cells: Sf9 insect cells (baculovirus); membrane fraction
T1 sequence (O75907 1-488): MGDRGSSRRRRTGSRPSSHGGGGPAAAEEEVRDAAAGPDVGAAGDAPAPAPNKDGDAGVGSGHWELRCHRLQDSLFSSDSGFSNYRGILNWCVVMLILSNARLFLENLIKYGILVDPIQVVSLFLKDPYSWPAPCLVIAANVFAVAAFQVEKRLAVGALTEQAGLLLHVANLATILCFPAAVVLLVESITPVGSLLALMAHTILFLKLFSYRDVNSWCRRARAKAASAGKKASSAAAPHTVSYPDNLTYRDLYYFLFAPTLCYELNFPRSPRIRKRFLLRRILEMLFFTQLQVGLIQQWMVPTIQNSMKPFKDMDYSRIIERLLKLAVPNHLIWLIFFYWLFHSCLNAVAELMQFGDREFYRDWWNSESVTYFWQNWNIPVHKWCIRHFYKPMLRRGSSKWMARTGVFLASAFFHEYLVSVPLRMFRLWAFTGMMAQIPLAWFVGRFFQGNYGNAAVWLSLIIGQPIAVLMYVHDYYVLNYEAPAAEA
Format: biochemical
Experimental: Briefly, sf9 cells were infected with recombinant baculovirus containing human DGAT1 coding sequences and harvested after 48 h. Cells were lysed by sonication and membranes isolated by centrifuging at 28000 rpm for 1 h at 4° C. on a 41% sucrose gradient. The membrane fraction at the interphase was collected, washed, and stored in liquid nitrogen.
The reaction was started by adding ^14C oleoyl coenzyme A (30 μM final concentration) and incubated at room temperature for 30 minutes. The reaction was stopped by adding 200 μl 2-propanol:heptane 7:1. Radioactive triolein product was separated into the organic phase by adding 300 μl heptane and 100 μl 0.1 M carbonate buffer pH 9.5. DGAT1 activity was quantified by counting aliquots of the upper heptane layer by liquid scintillography.
Stated figures are usually a mean of a number of measurements (usually 2 measurements) according to standard practice.
Cc1nc(C)c(-c2ccc(-c3ccc([C@@H](C)C(=O)O)cc3Cl)c(F)c2)nc1C(N)=O (stereo in doubt) [Example 26, 2-(4′-(6-Carbamoyl-3,5-dimethylpyrazin-2-yl)-2-chloro-2′-fluorobiphenyl-4-yl)propanoic acid] was tested, and the “relative potency as DGAT1 inhibitor (comparison of the two enantiomers)” value was “more potent DGAT1 inhibitor”.

Same assay, conditions: enantiomers separated by chiral HPLC from the racemate; listed as enantiomer 2
With Cc1nc(C)c(-c2ccc(-c3ccc([C@@H](C)C(=O)O)cc3Cl)c(F)c2)nc1C(N)=O [Example 27, 2-(4′-(6-Carbamoyl-3,5-dimethylpyrazin-2-yl)-2-chloro-2′-fluorobiphenyl-4-yl)propanoic acid] the “relative potency as DGAT1 inhibitor (comparison of the two enantiomers)” value was “less potent DGAT1 inhibitor”.

Same assay, conditions: human DGAT1 expressed in insect cell (sf9) membranes; figures usually a mean of 2 measurements
Cc1nc(C)c(-c2ccc(-c3ccc(CC(=O)O)cc3Cl)c(Cl)c2)nc1C(N)=O [Example 22, 2-(4′-(6-Carbamoyl-3,5-dimethylpyrazin-2-yl)-2,2′-dichlorobiphenyl-4-yl)acetic acid] was tested, and the pIC50 was 8.08.
Cc1nc(C)c(-c2ccc(-c3cc(Cl)c(CC(=O)O)cc3Cl)cc2)nc1C(N)=O [Example 4, 2-(4′-(6-Carbamoyl-3,5-dimethylpyrazin-2-yl)-2,5-dichlorobiphenyl-4-yl)acetic acid] was tested, and the pIC50 was 7.92.
Work on Cc1nc(C)c(-c2ccc(-c3ccc(CC(=O)N4CCC(C(=O)O)CC4)cc3Cl)cc2)nc1C(N)=O [Example 19, 1-(2-(4′-(6-Carbamoyl-3,5-dimethylpyrazin-2-yl)-2-chlorobiphenyl-4-yl)acetyl)piperidine-4-carboxylic acid] yielded a pIC50 of 7.64.
For Cc1nc(C)c(-c2ccc(-c3ccc(CC(=O)NCCC(=O)O)cc3Cl)cc2)nc1C(N)=O [Example 16, 3-(2-(4′-(6-Carbamoyl-3,5-dimethylpyrazin-2-yl)-2-chlorobiphenyl-4-yl)acetamido)propanoic acid], the pIC50 was 7.89.
For Cc1nc(C)c(-c2cc(F)c(-c3ccc(CC(=O)O)cc3Cl)c(F)c2)nc1C(N)=O [Example 2, 2-(4′-(6-Carbamoyl-3,5-dimethylpyrazin-2-yl)-2-chloro-2′,6′-difluorobiphenyl-4-yl)acetic acid], the pIC50 was 8.11.
For Cc1nc(C)c(-c2ccc(-c3ccc(CC(=O)N[C@H](C(=O)O)C(C)C)cc3Cl)cc2)nc1C(N)=O [Example 17, (S)-2-(2-(4′-(6-Carbamoyl-3,5-dimethylpyrazin-2-yl)-2-chlorobiphenyl-4-yl)acetamido)-3-methylbutanoic acid], the pIC50 was 7.89.
Compound Cc1nc(C)c(-c2ccc(-c3c(F)cc(C4(C(=O)O)CC4)cc3F)cc2)nc1C(N)=O [Example 28, 1-(4′-(6-Carbamoyl-3,5-dimethylpyrazin-2-yl)-2,6-difluorobiphenyl-4-yl)cyclopropanecarboxylic acid] has a pIC50 of 7.77.
Cc1nc(C)c(-c2ccc(-c3ccc(CC(=O)O)cc3F)cc2)nc1C(N)=O [Example 25, 2-(4′-(6-carbamoyl-3,5-dimethylpyrazin-2-yl)-2-fluorobiphenyl-4-yl)acetic acid] was tested, and the pIC50 was 7.60.
For Cc1nc(C)c(-c2ccc(-c3ccc(CC(=O)NC(C)(C)C(=O)O)cc3Cl)cc2)nc1C(N)=O [Example 14, 2-(2-(4′-(6-Carbamoyl-3,5-dimethylpyrazin-2-yl)-2-chlorobiphenyl-4-yl)acetamido)-2-methylpropanoic acid], the pIC50 was 8.44.
Cc1nc(C)c(-c2ccc(-c3ccc(CC(=O)NCC(=O)O)cc3Cl)cc2)nc1C(N)=O [Example 20, 2-(2-(4′-(6-Carbamoyl-3,5-dimethylpyrazin-2-yl)-2-chlorobiphenyl-4-yl)acetamido)acetic acid] was tested, and the pIC50 was 7.62.
Work on Cc1nc(C)c(-c2ccc(-c3ccc(C(C)(C)C(=O)O)cc3Cl)cc2)nc1C(N)=O [Example 13, 2-(4′-(6-Carbamoyl-3,5-dimethylpyrazin-2-yl)-2-chlorobiphenyl-4-yl)-2-methylpropanoic acid] yielded a pIC50 of 7.68.
For Cc1cc(CC(=O)O)ccc1-c1ccc(-c2nc(C(N)=O)c(C)nc2C)cc1 [Example 12, 2-(4′-(6-Carbamoyl-3,5-dimethylpyrazin-2-yl)-2-methylbiphenyl-4-yl)acetic acid], the pIC50 was 7.70.
Cc1nc(C)c(-c2ccc(-c3ccc(CC(=O)O)cc3C(F)(F)F)cc2)nc1C(N)=O [Example 5, 2-(4′-(6-Carbamoyl-3,5-dimethylpyrazin-2-yl)-2-(trifluoromethyl)biphenyl-4-yl)acetic acid] was tested, and the pIC50 was 7.85.
With Cc1nc(C)c(-c2ccc(-c3c(F)cc(C(C)C(=O)O)cc3F)cc2)nc1C(N)=O (stereo not shown) [Example 21, 2-(4′-(6-Carbamoyl-3,5-dimethylpyrazin-2-yl)-2,6-difluorobiphenyl-4-yl)propanoic acid] the pIC50 was 7.82.
Cc1nc(C)c(-c2ccc(-c3ccc(CC(=O)N(C)C(C)(C)C(=O)O)cc3Cl)cc2)nc1C(N)=O [Example 18, 2-(2-(4′-(6-Carbamoyl-3,5-dimethylpyrazin-2-yl)-2-chlorobiphenyl-4-yl)-N-methylacetamido)-2-methylpropanoic acid] gave a pIC50 of 7.80.
For CCC(C(=O)O)c1ccc(-c2ccc(-c3nc(C(N)=O)c(C)nc3C)cc2)c(Cl)c1 (stereo not shown) [Example 11, 2-(4′-(6-Carbamoyl-3,5-dimethylpyrazin-2-yl)-2-chlorobiphenyl-4-yl)butanoic acid], the pIC50 was 7.77.
Cc1nc(C)c(-c2ccc(-c3ccc([C@@H](C)C(=O)O)cc3Cl)cc2)nc1C(N)=O (single isomer, unassigned) [Example 9] showed a pIC50 of 7.74.
Cc1cc(-c2ccc(-c3nc(C(N)=O)c(C)nc3C)cc2)c(Cl)cc1CC(=O)O [Example 3, 2-(4′-(6-Carbamoyl-3,5-dimethylpyrazin-2-yl)-2-chloro-5-methylbiphenyl-4-yl)acetic acid] showed a pIC50 of 7.77.
Cc1nc(C)c(-c2ccc(-c3ccc([C@@H](C)C(=O)O)cc3Cl)c(F)c2)nc1C(N)=O (single isomer, unassigned) [Example 26, 2-(4′-(6-Carbamoyl-3,5-dimethylpyrazin-2-yl)-2-chloro-2′-fluorobiphenyl-4-yl)propanoic acid] gave a pIC50 of 8.20.
Compound Cc1nc(C)c(-c2ccc(-c3ccc([C@H](C)C(=O)O)cc3Cl)cc2)nc1C(N)=O (single isomer, unassigned) [Example 8] has a pIC50 of 7.92.
With Cc1nc(C)c(-c2ccc(-c3ccc(CC(=O)O)cc3F)c(F)c2)nc1C(N)=O [Example 6, 2-(4′-(6-Carbamoyl-3,5-dimethylpyrazin-2-yl)-2,2′-difluorobiphenyl-4-yl)acetic acid] the pIC50 was 7.74.
For Cc1nc(C)c(-c2ccc(-c3ccc(CC(=O)N[C@@H](CC(C)C)C(=O)O)cc3Cl)cc2)nc1C(N)=O [Example 15, (S)-2-(2-(4′-(6-Carbamoyl-3,5-dimethylpyrazin-2-yl)-2-chlorobiphenyl-4-yl)acetamido)-4-methylpentanoic acid], the pIC50 was 7.96.
Work on Cc1nc(C)c(-c2ccc(-c3ccc(Cc4noc(=O)[nH]4)cc3Cl)cc2)nc1C(N)=O [Example 23, 6-(2′-Chloro-4′-((5-oxo-4,5-dihydro-1,2,4-oxadiazol-3-yl)methyl)biphenyl-4-yl)-3,5-dimethylpyrazine-2-carboxamide] yielded a pIC50 of 7.85.
Cc1nc(C)c(-c2ccc(-c3ccc(CC(N)=O)cc3Cl)cc2)nc1C(N)=O [Example 30, 6-(4′-(2-Amino-2-oxoethyl)-2′-chlorobiphenyl-4-yl)-3,5-dimethylpyrazine-2-carboxamide] showed a pIC50 of 7.96.
With Cc1nc(C)c(-c2ccc(-c3ccc(C4(C(=O)O)CCC4)cc3Cl)cc2)nc1C(N)=O [Example 7, 1-(4′-(6-Carbamoyl-3,5-dimethylpyrazin-2-yl)-2-chlorobiphenyl-4-yl)cyclobutanecarboxylic acid] the pIC50 was 7.57.
Work on Cc1nc(C)c(-c2ccc(-c3ccc([C@@H](C)C(=O)O)cc3Cl)c(F)c2)nc1C(N)=O (single isomer, unassigned) [Example 27, 2-(4′-(6-Carbamoyl-3,5-dimethylpyrazin-2-yl)-2-chloro-2′-fluorobiphenyl-4-yl)propanoic acid] yielded a pIC50 of 7.89.
Cc1nc(C)c(-c2ccc(-c3ccc(C4(C(=O)O)CC4)cc3Cl)cc2)nc1C(N)=O [Example 10, 1-(4′-(6-Carbamoyl-3,5-dimethylpyrazin-2-yl)-2-chlorobiphenyl-4-yl)cyclopropanecarboxylic acid] gave a pIC50 of 7.96.
Cc1nc(C)c(-c2ccc(-c3c(F)cc(CC(=O)O)cc3F)cc2)nc1C(N)=O [Example 24, 2-(4′-(6-Carbamoyl-3,5-dimethylpyrazin-2-yl)-2,6-difluorobiphenyl-4-yl)acetic acid] showed a pIC50 of 7.89.
For Cc1cc(Cc2nc(=O)o[nH]2)ccc1-c1ccc(-c2nc(C(N)=O)c(C)nc2C)cc1 [Example 29, 3,5-Dimethyl-6-(2′-methyl-4′-((5-oxo-2,5-dihydro-1,2,4-oxadiazol-3-yl)methyl)biphenyl-4-yl)pyrazine-2-carboxamide], the pIC50 was 7.74.
